The values that follow come from patent publication US20090005338A1, “Carbonyl-substituted titanocenes” (Charite - Universitatsmedizin Berlin, priority 2006, published 2009).

Data set [1] has as its system BJAB cells. As to conditions: 75 μM, 72 h.
The test system of a further data set is human lymphoma cells. To be noted: SCID mice, microcrystalline suspension p.o., 5×50 mg/kg body weight per week over 2 weeks from day 14; Mann-Whitney U test p<0.05. How it is done:
The mean values of the tumor volumes (*=significance) with standard deviations as a function of therapy duration (application of (2) from day 14 with 5×50 mg/kg body weight per week p.o. over 2 weeks) are shown.

The test system of the next data set is BLAB cells. To be noted: 3 h incubation, highest concentration.
Data set [2] has as its system BJAB cells (Burkitt lymphoma cell line). Put plainly: Apoptosis induction detected as DNA fragmentation by flow cytometry (FACS) after propidium iodide staining. It is filed as cell-based. To be noted: 72 h. How it is done:
Within the scope of apoptotic cell death, the cell is dismantled proteolytically by caspases from inside. Thereupon, the DNA is also fragmented, inter alia. This DNA fragmentation, which is specific for apoptosis, is considered a proof of apoptosis induction and is detected by means of flow cytometry on the single cell level.
BJAB cells (Burkitt lymphoma cell line) in different concentrations were treated with a titanocene derivative and incubated at 37° C. and 5% CO2 for 72 hours. A control (untreated cell suspension) and a solvent control with dimethyl sulfoxide (DMSO) were continuously included. After incubation for 72 hours, apoptosis induction was detected by flow cytometry (FACS) through DNA fragmentation with propidium iodide (Eβmann, 2000).
FIG. 1: BLAB mock cells (1×10^5/ml) were treated with increasing concentrations of the titanocene derivative 4-[1-(dichlorotitanocenyl)]-4-methylbutyric acid n-octylamide (2) and incubated at 37° C. and 5% CO2 for 72 h. After propidium iodide staining, the DNA fragments were detected by flow cytometry (FACS analysis). Ko (untreated cell suspension) and DMSO (solvent control) were included with equivalent treatment.
Since the activity of the cytostatic agents develops in the malignant cells through a specific apoptosis induction, it is reasonable to measure this effect and thus the selectivity of our compounds rather than stating, as usual, the non-specific cytotoxicity described by the LC50 values. Therefore, for examining the structure-effect relationship of our titanocenes, we have established the concentration (AC50) at which a specific apoptosis is induced in […] of the lymphoma cells.
For determining this value, lymphoma cells (10^5/ml BJAB cells) were incubated in different concentrations with (21) at 5% CO2 and 37° C. for 72 h. After staining with propidium iodide, the DNA fragmentation was detected by flow cytometry by means of a FACS analysis.
In general terms: In flow cytometry, cells or beads pass a laser one at a time.

The test system of data set [3] is BJAB cells. To be noted: 48 h, concentration-dependent.
Procedure: After treatment of the cells with different concentrations of a titanocene including a zero control and a solvent control (DMSO), the cells are incubated at 37° C. and 5% CO2 for 48 hours.
The incubation was effected at 37° C. and 5% CO2 for 48 h including zero and solvent controls, followed by staining the cells with the mitochondria-specific stain JC-1 and detection of the color change and thus the change of the mitochondrial membrane potential by flow cytometry.
For data set [4] the following is noted: SCID mice, oral therapy 50 mg/kg body weight.
Data set [5] has as its system primary lymphoblasts from an ALL patient. The data set is described as follows: Apoptosis induction in primary lymphoblasts ex vivo (DNA fragmentation, propidium iodide, FACS). It is filed as cell-based, human. To be noted: 60 h, concentration in the range of LD50 in the BLAB cell line; for apoptosis induction in primary lymphoblasts (in words): therapy-resistant leukemia cells. How it is done:
The concentrations employed were selected to always be within the respective range of LD50 when the BLAB cell line was used. Thereafter, the cells were incubated at 37° C. and 5% CO2 for 60 hours, followed by staining with propidium iodide and quantifying by flow cytometry in FACS (Prokop et al., 2003).
The incubation was effected at 37° C. and 5% CO2 for 60 h. Apoptosis induction was measured as DNA fragmentation by flow cytometry after propidium iodide staining.

In another data set the test system is lymphoma cells (BLAB). To be noted: various concentrations, 72 h.

Procedure for BLAB cells: A non-specific cytotoxic effect of the titanocenes via necrosis could be excluded by measuring the extracellular lactate dehydrogenase (LDH) release by ELISA reader detection after incubation for 3 h.
Procedure for lymphoma cells (BLAB): Lymphoma cells (BLAB) were treated with the carbonyl-substituted titanocene (2), the conventional nucleoside analogue cytarabin (AraC), which is used in the therapy of malignant diseases, and with the combination of (2) and AraC in various concentrations for 72 h. The apoptosis induction was examined by flow cytometry by measuring the DNA fragmentation after staining the cells with propidium iodide. The measured values of three independent examinations are shown, wherein the error bars show the standard deviations from the mean.

“4-[1-(dichlorotitanocenyl)]-4-methylbutyric acid n-octylamide [Complex (2)]”: the cell morphology entry with BJAB cells [1] is “significant swelling and “blebbing” that is characteristic of apoptosis”. In addition, in the data set on human lymphoma cells, the “growth of human lymphoma cells (tumor volume)” value is “significantly inhibited”. The “viability of the cell population (LDH release)” value with BLAB cells was “above 94%”. Further, the “apoptosis induced, proportion of BJAB cells” value in data set [2] (100 μM) was “about 840%”. The AC50 in data set [2] (BJAB cell line, 37° C., 5% CO2, read-out: AC50 (concentration at which a specific apoptosis is induced in 500% of the lymphoma cells)) was determined as 55 µM. In data set [2] (BJAB, highest effect over the concentrations tested), the “concentration-dependent apoptosis induction (proportion of apoptotic cells in the total population)” value was “up to 80%”. Besides, in the data set with BJAB cells [3], the “proportion of cells with changed mitochondrial membrane potential (ΔΨm)” value is on record as “more than 70%”. Also, the tolerability entry in data set [4] is recorded as “good tolerability”. Moreover, the “apoptosis induction, proportion of leukemia cells ex vivo” value in data set [5] is “about 60%”. Besides, the “effect of the combination with AraC on apoptosis induction” value with lymphoma cells (BLAB) is “significant synergistic effect”.

With `Nc1ccn([C@@H]2O[C@H](CO)[C@@H](O)[C@@H]2O)c(=O)n1` [cytarabin], the “apoptosis induction in primary lymphoblasts (in words)” value (“apoptosis induction … (in words)” for short) in data set [5] is reported as “did not induce any significant apoptosis”.

Regarding `COc1cccc2c1C(=O)c1c(O)c3c(c(O)c1C2=O)C[C@@](O)(C(C)=O)C[C@@H]3O[C@H]1C[C@H](N)[C@H](O)[C@H](C)O1` [daunorubicin], the “apoptosis induction … (in words)” value in data set [5] is listed as “did not induce any significant apoptosis”.

For `COc1cccc2c1C(=O)c1c(O)c3c(c(O)c1C2=O)C[C@@](O)(C(=O)CO)C[C@@H]3O[C@H]1C[C@H](N)[C@H](O)[C@H](C)O1` [doxorubicin], in data set [5], the “apoptosis induction … (in words)” value was “did not induce any significant apoptosis”.

With `COc1cccc2c1C(=O)c1c(O)c3c(c(O)c1C2=O)C[C@@](O)(C(=O)CO)C[C@@H]3O[C@H]1C[C@H](N)[C@@H](O)[C@H](C)O1` [epirubicin], the “apoptosis induction … (in words)” value in data set [5] is “did not induce any significant apoptosis”.

`CC(=O)[C@]1(O)Cc2c(O)c3c(c(O)c2[C@@H](O[C@H]2C[C@H](N)[C@H](O)[C@H](C)O2)C1)C(=O)c1ccccc1C3=O` [idarubicin]: the “apoptosis induction … (in words)” value in data set [5] was “did not induce any significant apoptosis”.

In the case of `CC[C@]1(O)C[C@H]2CN(CCc3c([nH]c4ccccc34)[C@@](C(=O)OC)(c3cc4c(cc3OC)N(C=O)[C@H]3[C@@](O)(C(=O)OC)[C@H](OC(C)=O)[C@]5(CC)C=CCN6CC[C@]43[C@@H]65)C2)C1` [vincristin], the “apoptosis induction … (in words)” value in data set [5] is listed as “did not induce any significant apoptosis”.
